In ChEMBL document CHEMBL5143590, “Dihydropyrimidinone imidazoles as unique structural antibacterial agents for drug-resistant gram-negative pathogens” (Eur J Med Chem, 2022):
In brackets after ≈: the same amount, converted by molar mass.

Key:
Type in all cases: functional
Pseudomonas aeruginosa [1] = experiment: Antibacterial activity against Pseudomonas aeruginosa assessed as inhibition of bacterial growth by two fold serial dilution method
Staphylococcus aureus [2] = experiment: Antibacterial activity against methicillin-resistant Staphylococcus aureus N315 assessed as inhibition of bacterial growth by two fold serial dilution method
Staphylococcus aureus [3] = experiment: Antibacterial activity against Staphylococcus aureus 25923 assessed as inhibition of bacterial growth by two fold serial dilution method
Acinetobacter baumannii = experiment: Antibacterial activity against Acinetobacter baumannii assessed as inhibition of bacterial growth by two fold serial dilution method
Staphylococcus aureus [4] = experiment: Antibacterial activity against Staphylococcus aureus 29213 assessed as inhibition of bacterial growth by two fold serial dilution method
Pseudomonas aeruginosa [5] = experiment: Antibacterial activity against Pseudomonas aeruginosa 27853 assessed as inhibition of bacterial growth by two fold serial dilution method
Staphylococcus aureus [6] = experiment: Antibacterial activity against Staphylococcus aureus assessed as inhibition of bacterial growth by two fold serial dilution method
Escherichia coli [7] = experiment: Antibacterial activity against Escherichia coli 25922 assessed as inhibition of bacterial growth by two fold serial dilution method
Escherichia coli [8] = experiment: Antibacterial activity against Escherichia coli assessed as inhibition of bacterial growth by two fold serial dilution method
Klebsiella pneumoniae = experiment: Antibacterial activity against Klebsiella pneumoniae assessed as inhibition of bacterial growth by two fold serial dilution method
Enterococcus faecalis = experiment: Antibacterial activity against Enterococcus faecalis assessed as inhibition of bacterial growth by two fold serial dilution method

| Structure (SMILES) | MIC (Pseudomonas aeruginosa [1]) [µg/mL] | MIC (Staphylococcus aureus [2]) [µg/mL] | MIC (Staphylococcus aureus [3]) [µg/mL] | MIC (Acinetobacter baumannii) [µg/mL] | MIC (Staphylococcus aureus [4]) [µg/mL] | MIC (Pseudomonas aeruginosa [5]) [µg/mL] | MIC (Staphylococcus aureus [6]) [µg/mL] | MIC (Escherichia coli [7]) [µg/mL] | MIC (Escherichia coli [8]) [µg/mL] | MIC (Klebsiella pneumoniae) [µg/mL] | MIC (Enterococcus faecalis) [µg/mL] |
| --- | --- | --- | --- | --- | --- | --- | --- | --- | --- | --- | --- |
| CCCCc1nc(Cl)c(C2NC(=O)NC(C)=C2C(=O)OCC)n1Cc1ccc(Cl)c(Cl)c1 (stereo not given) | 128 (≈ 256 µM) | 32 (≈ 64 µM) | 32 (≈ 64 µM) | 128 (≈ 256 µM) | 64 (≈ 128 µM) | 64 (≈ 128 µM) | 32 (≈ 64 µM) | 64 (≈ 128 µM) | 128 (≈ 256 µM) | 64 (≈ 128 µM) | 64 (≈ 128 µM) |
| NC1CCN(c2c(F)cc3c(=O)c(C(=O)O)cn(C4CC4)c3c2Cl)C1 (stereo not given) [CLINAFLOXACIN] | 1 (≈ 2.73 µM) | 1 (≈ 2.73 µM) | 0.5 (≈ 1.37 µM) | 2 (≈ 5.47 µM) | 0.5 (≈ 1.37 µM) | 1 (≈ 2.73 µM) | 0.5 (≈ 1.37 µM) | 1 (≈ 2.73 µM) | 0.5 (≈ 1.37 µM) | 1 (≈ 2.73 µM) | 0.5 (≈ 1.37 µM) |
| CCCCc1nc(Cl)c(C2NC(=O)NC(C)=C2C(=O)OCC)n1CCC (stereo not given) | 32 (≈ 83.6 µM) | 64 (≈ 167 µM) | 64 (≈ 167 µM) | 64 (≈ 167 µM) | 128 (≈ 334 µM) | 64 (≈ 167 µM) | 16 (≈ 41.8 µM) | 32 (≈ 83.6 µM) | 64 (≈ 167 µM) | 64 (≈ 167 µM) | 32 (≈ 83.6 µM) |
| C#CCn1c(CCCC)nc(Cl)c1C1NC(=O)NC(C)=C1C(=O)OCC (stereo not given) | 64 (≈ 169 µM) | 64 (≈ 169 µM) | 128 (≈ 338 µM) | 64 (≈ 169 µM) | 64 (≈ 169 µM) | 128 (≈ 338 µM) | 64 (≈ 169 µM) | 64 (≈ 169 µM) | 128 (≈ 338 µM) | 32 (≈ 84.5 µM) | 64 (≈ 169 µM) |
| C=CCn1c(CCCC)nc(Cl)c1C1NC(=O)NC(C)=C1C(=O)OCC (stereo not given) | 64 (≈ 168 µM) | 64 (≈ 168 µM) | 128 (≈ 336 µM) | 64 (≈ 168 µM) | 64 (≈ 168 µM) | 128 (≈ 336 µM) | 32 (≈ 84 µM) | 64 (≈ 168 µM) | 64 (≈ 168 µM) | 64 (≈ 168 µM) | 64 (≈ 168 µM) |
| CCCCc1nc(Cl)c(C2NC(=O)NC(C)=C2C(=O)OCC)n1S(=O)(=O)c1ccc(C(C)(C)C)cc1 (stereo not given) | 256 (≈ 477 µM) | 64 (≈ 119 µM) | 32 (≈ 59.6 µM) | 128 (≈ 238 µM) | 64 (≈ 119 µM) | 64 (≈ 119 µM) | 64 (≈ 119 µM) | 64 (≈ 119 µM) | 64 (≈ 119 µM) | 128 (≈ 238 µM) | 128 (≈ 238 µM) |
| CCCCc1nc(Cl)c(C2NC(=O)NC(C)=C2C(=O)OCC)n1CCF (stereo not given) | 64 (≈ 165 µM) | 128 (≈ 331 µM) | 64 (≈ 165 µM) | 64 (≈ 165 µM) | 64 (≈ 165 µM) | 64 (≈ 165 µM) | 32 (≈ 82.7 µM) | 128 (≈ 331 µM) | 32 (≈ 82.7 µM) | 128 (≈ 331 µM) | 64 (≈ 165 µM) |
| Cc1cc(NS(=O)(=O)c2ccc(N)cc2)no1 [SULFAMETHOXAZOLE] | 64 (≈ 253 µM) | 1 (≈ 3.95 µM) | 128 (≈ 505 µM) | 32 (≈ 126 µM) | 16 (≈ 63.2 µM) | 32 (≈ 126 µM) | 32 (≈ 126 µM) | 8 (≈ 31.6 µM) | 32 (≈ 126 µM) | 32 (≈ 126 µM) | 64 (≈ 253 µM) |
| CCCCc1nc(Cl)c(C2NC(=O)NC(C)=C2C(=O)OCC)n1S(=O)(=O)c1cccc(Br)c1 (stereo not given) | 32 (≈ 57.2 µM) | 32 (≈ 57.2 µM) | 64 (≈ 114 µM) | 32 (≈ 57.2 µM) | 64 (≈ 114 µM) | 16 (≈ 28.6 µM) | 32 (≈ 57.2 µM) | 32 (≈ 57.2 µM) | 32 (≈ 57.2 µM) | 16 (≈ 28.6 µM) | 16 (≈ 28.6 µM) |
| CCCCc1nc(Cl)c(C2NC(=O)NC(C)=C2C(=O)OCC)n1S(=O)(=O)c1ccc(C(F)(F)F)cc1 (stereo not given) | 32 (≈ 58.3 µM) | 8 (≈ 14.6 µM) | 32 (≈ 58.3 µM) | 16 (≈ 29.1 µM) | 8 (≈ 14.6 µM) | 64 (≈ 117 µM) | 64 (≈ 117 µM) | 64 (≈ 117 µM) | 32 (≈ 58.3 µM) | 64 (≈ 117 µM) | 16 (≈ 29.1 µM) |
